Experimental data as given in patent US6626982B1, “Compound storage” (AstraZeneca AB, priority 1998, dated 2003).
Values joined by “and” are separate entries in the source; they are usually repeats but may differ in a detail not shown here. Identical values can stand only once.

Legend:
[1] = Adsorption onto Florisil and desorption into DMSO, quantified by RP-HPLC against a 10 mM control solution; format: physicochemical; settings: for Conc. (mM) of Compound in DMSO after desorption from Florisil / Conc. (mM) of Z-Trp-NH2 in DMSO after desorption from Florisil: control 10.00; for Conc. (mM) of Z-Trp-NH2 in DMSO after desorption from Florisil: nominal conc. 10 mM
Protocol: 1. 16.9 mg (50 μmol) of Z-Trp-NH2 in DMSO (0.5-5 ml) added to carrier (100 mg, 225 mg and 475 mg).
3. Evaporate off DMSO using centrifugal evaporator (70°/1 hr).
4. Mix resulting solid with spatula to ensure distribution as even as possible.
5. Weigh duplicate samples (to contain nominal 10 μmol Z-Trp-NH2) into vials.
6. Add DMSO to achieve 10^−2M conc. (nominal).
7. Dilute for HPLC analysis and compare with 10^−2M control solution of Z-Trp-NH2 similarly diluted.
Z-Trp-NH2 (169 mg) was dissolved in DMSO (50 ml) to give a 10 mM solution. Aliquots of the solution (5 ml, 50 μmol) were added to a 100 mg and a 225 mg sample of Florisil™ in 2-dram glass vials. The samples were vortexed for approximately one minute and the DMSO removed in vacuo by evaporation at 70° for 1 h in a centrifugal evaporator (GeneVac Atlas HT4™). After evaporation the samples were removed and checked visually. In each case dry solids were obtained in the form of free flowing powders virtually indistinguishable from the original Florisil™. The nominal loadings of the adsorbed samples were calculated as 207 and 427 μmol/g of Z-Trp-NH2.
Duplicate amounts (11.7 and 24.2 mg respectively) of the 427 and 207 μmol/g Z-Trp-NH2/Florisil™ samples were weighed into glass vials. DMSO (0.5 ml) was added to each vial and the vials were agitated gently for 15 min to give a nominal concentration of 10 mM of Z-Trp-NH2. Aliquots from each vial were diluted 100-fold with CH3CN and analysed by RP-HPLC monitoring by UV at […]. The peak areas obtained for the desorbed Z-Trp-NH2 DMSO solutions were compared with those obtained using a 10 mM control soln of Z-Trp-NH2 in DMSO similarly diluted.
Using a procedure analogous to that used for Z-Trp-NH2 the following results were obtained (Table 4 and FIG. 3)

[2] = Stability of Fmoc-Arg in DMSO and when adsorbed onto Florisil (HPLC); format: physicochemical
[3] = ratio of compound to Florisil 200.0 μmol/g
[4] = ratio of compound to Florisil 200.1 μmol/g
[5] = ratio of compound to Florisil 397.5 μmol/g
[6] = ratio of compound to Florisil 400.6 μmol/g

Conc. (mM) of Compound in DMSO after desorption from Florisil [1, 3] [mM]	Conc. (mM) of Compound in DMSO after desorption from Florisil [1, 4] [mM]	Conc. (mM) of Compound in DMSO after desorption from Florisil [1, 5] [mM]	Conc. (mM) of Compound in DMSO after desorption from Florisil [1, 6] [mM]	Conc. (mM) of Z-Trp-NH2 in DMSO after desorption from Florisil ([1]; ratio of Z-Trp-NH2 to Florisil 200 μmol/g)	Conc. (mM) of Z-Trp-NH2 in DMSO after desorption from Florisil ([1]; ratio of Z-Trp-NH2 to Florisil 400 μmol/g)	Overall adsorption/desorption result with Florisil ([1]; comparable to those obtained with Z-Trp-NH2)	Decomposition in DMSO ([2]; 10^-2 M in DMSO, after 24 hours at ambient temperature)	Stability when adsorbed onto Florisil ([2]; adsorbed onto Florisil, some decomposition during adsorption/desorption when DMSO is present)	Detection by HPLC after centrifugal evaporation and dissolution into DMSO ([2]; control experiment, no Florisil added)	Compound
9.75	14.20	11.06	10.63							Boc-Pyridylalanine [Boc-Pal]
9.10	9.06	9.64	9.64							Boc-Naphthylalanine [Boc-Nal]
10.04	10.31	11.93	10.51							Cl.NC(=O)[C@@H](N)Cc1c[nH]c2ccccc12 [Trp-NH2.HCl, Tryptophan amide hydrochloride]
				9.21 mM and 9.79 mM	10.26 mM and 10.09 mM					NC(=O)[C@H](Cc1c[nH]c2ccccc12)NC(=O)OCc1ccccc1 [Z-Trp-NH2]
7.70	7.65	5.11	5.53			apparent low release	decomposes completely	stable	not possible to detect any Fmoc-Arg	N=C(N)NCCC[C@H](NC(=O)OCC1c2ccccc2-c2ccccc21)C(=O)O [Fmoc-Arg, Fmoc-Arginine]
